Assay results published in US20140066394A1, “Substituted 6-(Benzylamino) Purine Riboside Derivatives, Use Thereof and Compositions Containing These Derivatives” (Biopatterns, S.R.O, priority 2009, published 2014).

Legend:
neutrophils = experiment: Neutrophil superoxide generation, lucigenin based assay; format: cell-based; details: Homo sapiens, primed neutrophils, compound 10 minutes prior to fMLP (FIG. 2)
Procedure: Neutrophils were cultured at 2×10^6 cells/ml in RPMI1640 medium containing human serum antibiotics and 20 ng/ml TNFα for 10 minutes prior to addition of a range of concentrations of compound 10. Generation of superoxide was determined over a 10 minute period using a lucigenin based assay. The area under the curve was calculated to give superoxide generation over the whole assay period.
Anti-inflammatory effects against neutrophils were determined by assessing effects of several of the compounds on neutrophil inflammatory activity (superoxide generation, secretion of chemoattractant IL8 and degranulation to release myeloperoxidase). Neutrophils were isolated from human blood to a purity of greater than 95% and were cultured in RPMI1640 medium containing 2% human AB serum, 2 mM L-glutamine and antibiotics (100 U/ml penicillin, […] streptomycin). Neutrophils were primed for 30 minutes with 50 ng/ml GM-CSF prior to treatment with the bacterial stimulant fMLP (100 ng/ml) and measurement of superoxide generation in a lucigenin based assay (see Pongracz J and Lord J M 1998, Biochem. Biophys. Res. Commun. 247, 624-629) and release of IL8 and myeloperoxidase using an ELISA method. The novel compounds were added to the culture at a range of concentrations (0.1-100 μM) 10 minutes prior to addition of fMLP. […]

[1] = system: Peripheral blood neutrophils; experiment: Neutrophil apoptosis, Giemsa stain and light microscopy; format: cell-based; details: Homo sapiens, 20 hours culture, read-out: IC50 of inhibition of neutrophil apoptosis
Procedure: Neutrophils were cultured at 2×10^6 cells/ml for 20 h in RPMI1640 medium containing human serum and antibiotics and a range of concentrations of compound 10. Apoptosis was determined by differential Giemsa staining and light microscopy to determine cells with an apoptotic nuclear morphology. Data are mean±SD of 5 separate experiments.
Effects of the compounds on neutrophil apoptosis were also determined as an indication of utility in diseases where their survival is dysregulated such as systemic vasculitis and chronic inflammatory disease. Peripheral blood neutrophils were cultured for 20 hours in RPMI1640 medium containing 2% human AB serum, 2 mM L-glutamine and antibiotics (100 U/ml penicillin, […] streptomycin) and their apoptosis determined by staining with Giemsa stain and observing an apoptotic morphology by light microscopy (see Pongracz J et al. 1999, J. Biol. Chem. 274: 37329-37334). Compound 10 inhibited neurophil apoptosis with an IC50 of 1 μM (FIG. 4).

IC50 (neutrophils): 5000 nM | IC50 [1]: 1000 nM
SMILES: COc1cccc(CNc2nc(Cl)nc3c2ncn3C2OC(CO)C(O)C2O)c1O (centres unmarked) [Compound 10, 2-Chloro-6-(2-hydroxy-3-methoxybenzylamino)purine riboside]
